Data published in ChEMBL document CHEMBL2311450, “Synthesis and antibacterial evaluation of novel 11,4″-disubstituted azithromycin analogs with greatly improved activity against erythromycin-resistant bacteria” (2013).
Values after ≈ are worked out from the molar mass of the structure shown.

Legend:
Streptococcus pneumoniae [1] = assay: Antibacterial activity against erythromycin-susceptible Streptococcus pneumoniae ATCC 49619 by broth microdilution method; assay type: functional
Streptococcus pneumoniae [2] = assay: Antibacterial activity against erythromycin-resistant Streptococcus pneumoniae A22072 expressing mef gene by broth microdilution method; assay type: functional
Streptococcus pyogenes [3] = assay: Antibacterial activity against erythromycin-resistant Streptococcus pyogenes RE clinical isolate by broth microdilution method; assay type: functional
Salmonella typhimurium [4] = assay: Antibacterial activity against Salmonella typhimurium TA102 by broth microdilution method; assay type: functional, Salmonella enterica subsp. enterica serovar Typhimurium; conditions: Salmonella enterica
Streptococcus pneumoniae [5] = assay: Antibacterial activity against erythromycin-resistant Streptococcus pneumoniae B1 expressing erm gene by broth microdilution method; assay type: functional
Streptococcus pneumoniae [6] = assay: Ratio of azithromycin MIC to compound MIC for erythromycin-resistant Streptococcus pneumoniae AB11 expressing erm and mef genes; assay type: functional
Streptococcus pneumoniae [7] = assay: Antibacterial activity against erythromycin-resistant Streptococcus pneumoniae AB11 expressing erm and mef genes by broth microdilution method; assay type: functional
Streptococcus pyogenes [8] = assay: Antibacterial activity against erythromycin-susceptible Streptococcus pyogenes by broth microdilution method; assay type: functional
Staphylococcus aureus [9] = assay: Antibacterial activity against penicillin-resistant Staphylococcus aureus clinical isolate by broth microdilution method; assay type: functional
Staphylococcus aureus [10] = assay: Antibacterial activity against methicillin-susceptible Staphylococcus aureus ATCC 29213 by broth microdilution method; assay type: functional
Staphylococcus aureus [11] = assay: Antibacterial activity against erythromycin-susceptible Staphylococcus aureus ATCC 25923 by broth microdilution method; assay type: functional
Salmonella typhimurium [12] = assay: Antibacterial activity against Salmonella typhimurium TA98 by broth microdilution method; assay type: functional, Salmonella enterica subsp. enterica serovar Typhimurium; conditions: Salmonella enterica
Streptococcus pneumoniae [13] = assay: Ratio of azithromycin MIC to compound MIC for erythromycin-resistant Streptococcus pneumoniae A22072 expressing mef gene; assay type: functional
Streptococcus pneumoniae [14] = assay: Ratio of azithromycin MIC to compound MIC for erythromycin-resistant Streptococcus pneumoniae B1; assay type: functional

Compound | MIC (Streptococcus pneumoniae [1]) [µg/mL] | MIC (Streptococcus pneumoniae [2]) [µg/mL] | MIC (Streptococcus pyogenes [3]) [µg/mL] | MIC (Salmonella typhimurium [4]) [µg/mL] | MIC (Streptococcus pneumoniae [5]) [µg/mL] | Ratio (Streptococcus pneumoniae [6]) | MIC (Streptococcus pneumoniae [7]) [µg/mL] | MIC (Streptococcus pyogenes [8]) [µg/mL] | MIC (Staphylococcus aureus [9]) [µg/mL] | MIC (Staphylococcus aureus [10]) [µg/mL] | MIC (Staphylococcus aureus [11]) [µg/mL] | MIC (Salmonella typhimurium [12]) [µg/mL] | Ratio (Streptococcus pneumoniae [13]) | Ratio (Streptococcus pneumoniae [14])
CC[C@H]1OC(=O)[C@H](C)[C@@H](O[C@H]2C[C@@](C)(OC)[C@@H](OC(=O)NCCCCNC(=O)c3cc([N+](=O)[O-])cc([N+](=O)[O-])c3)[C@H](C)O2)[C@H](C)[C@@H](O[C@@H]2O[C@H](C)C[C@H](N(C)C)[C@H]2O)[C@](C)(O)C[C@@H](C)CN(C)[C@H](C)[C@@H](OC(=O)NCc2ccc(F)c(F)c2)[C@]1(C)O | 0.03 (≈ 0.0245 µM) | 0.03 (≈ 0.0245 µM) | 16 (≈ 13 µM) | 0.5 (≈ 0.408 µM) | 0.25 (≈ 0.204 µM) | 128 | 2 (≈ 1.63 µM) | 2 (≈ 1.63 µM) | 4 (≈ 3.26 µM) | 4 (≈ 3.26 µM) | 0.25 (≈ 0.204 µM) | 1 (≈ 0.815 µM) | 133 | 512
CC[C@H]1OC(=O)[C@H](C)[C@@H](O[C@H]2C[C@@](C)(OC)[C@@H](OC(=O)NCCCCNC(=O)c3cc([N+](=O)[O-])cc([N+](=O)[O-])c3)[C@H](C)O2)[C@H](C)[C@@H](O[C@@H]2O[C@H](C)C[C@H](N(C)C)[C@H]2O)[C@](C)(O)C[C@@H](C)CN(C)[C@H](C)[C@@H](OC(=O)NCCc2ccc(OC)cc2)[C@]1(C)O | 0.03 (≈ 0.0243 µM) | 0.03 (≈ 0.0243 µM) | 16 (≈ 13 µM) | 0.5 (≈ 0.405 µM) | 0.25 (≈ 0.203 µM) | 128 | 2 (≈ 1.62 µM) | 1 (≈ 0.81 µM) | 4 (≈ 3.24 µM) | 4 (≈ 3.24 µM) | 0.25 (≈ 0.203 µM) | 1 (≈ 0.81 µM) | 133 | 512
CC[C@H]1OC(=O)[C@H](C)[C@@H](O[C@H]2C[C@@](C)(OC)[C@@H](OC(=O)NCCNC(=O)c3ccc(OC)c(OC)c3)[C@H](C)O2)[C@H](C)[C@@H](O[C@@H]2O[C@H](C)C[C@H](N(C)C)[C@H]2O)[C@](C)(O)C[C@@H](C)CN(C)[C@H](C)[C@@H](OC(=O)NCCc2ccccc2)[C@]1(C)O | 0.06 (≈ 0.0523 µM) | 0.5 (≈ 0.436 µM) | 64 (≈ 55.8 µM) | 2 (≈ 1.74 µM) | 4 (≈ 3.49 µM) | – | 16 (≈ 14 µM) | 32 (≈ 27.9 µM) | 4 (≈ 3.49 µM) | 4 (≈ 3.49 µM) | 1 (≈ 0.872 µM) | 8 (≈ 6.98 µM) | – | –
CC[C@H]1OC(=O)[C@H](C)[C@@H](O[C@H]2C[C@@](C)(OC)[C@@H](OC(=O)NCCCCNC(=O)c3ccc(OC)cc3)[C@H](C)O2)[C@H](C)[C@@H](O[C@@H]2O[C@H](C)C[C@H](N(C)C)[C@H]2O)[C@](C)(O)C[C@@H](C)CN(C)[C@H](C)[C@@H](OC(=O)NCc2ccccc2)[C@]1(C)O | 0.03 (≈ 0.0265 µM) | 0.12 (≈ 0.106 µM) | 64 (≈ 56.6 µM) | 0.12 (≈ 0.106 µM) | 2 (≈ 1.77 µM) | – | 8 (≈ 7.08 µM) | 8 (≈ 7.08 µM) | 2 (≈ 1.77 µM) | 4 (≈ 3.54 µM) | 0.5 (≈ 0.442 µM) | 2 (≈ 1.77 µM) | – | –
CC[C@H]1OC(=O)[C@H](C)[C@@H](O[C@H]2C[C@@](C)(OC)[C@@H](OC(=O)NNC(=O)c3ccc(Cl)cc3)[C@H](C)O2)[C@H](C)[C@@H](O[C@@H]2O[C@H](C)C[C@H](N(C)C)[C@H]2O)[C@](C)(O)C[C@@H](C)CN(C)[C@H](C)[C@@H](OC(=O)NCCc2ccccc2)[C@]1(C)O | 0.03 (≈ 0.0275 µM) | 0.12 (≈ 0.11 µM) | 32 (≈ 29.3 µM) | 8 (≈ 7.32 µM) | 2 (≈ 1.83 µM) | – | 8 (≈ 7.32 µM) | 1 (≈ 0.915 µM) | 8 (≈ 7.32 µM) | 2 (≈ 1.83 µM) | 0.5 (≈ 0.458 µM) | 1 (≈ 0.915 µM) | – | –
CC[C@H]1OC(=O)[C@H](C)[C@@H](O[C@H]2C[C@@](C)(OC)[C@@H](OC(=O)NCCCCNC(=O)c3ccc(OC)cc3)[C@H](C)O2)[C@H](C)[C@@H](O[C@@H]2O[C@H](C)C[C@H](N(C)C)[C@H]2O)[C@](C)(O)C[C@@H](C)CN(C)[C@H](C)[C@@H](OC(=O)NCc2ccc(F)c(F)c2)[C@]1(C)O | 0.03 (≈ 0.0257 µM) | 0.12 (≈ 0.103 µM) | 64 (≈ 54.9 µM) | 32 (≈ 27.4 µM) | 4 (≈ 3.43 µM) | – | 16 (≈ 13.7 µM) | 8 (≈ 6.86 µM) | 4 (≈ 3.43 µM) | 4 (≈ 3.43 µM) | 0.5 (≈ 0.429 µM) | 4 (≈ 3.43 µM) | – | –
CC[C@H]1OC(=O)[C@H](C)[C@@H](O[C@H]2C[C@@](C)(OC)[C@@H](OC(=O)NCCCCNC(=O)c3cc([N+](=O)[O-])cc([N+](=O)[O-])c3)[C@H](C)O2)[C@H](C)[C@@H](O[C@@H]2O[C@H](C)C[C@H](N(C)C)[C@H]2O)[C@](C)(O)C[C@@H](C)CN(C)[C@H](C)[C@@H](OC(=O)NCCc2ccccc2Cl)[C@]1(C)O | 0.03 (≈ 0.0242 µM) | 0.03 (≈ 0.0242 µM) | 16 (≈ 12.9 µM) | 0.25 (≈ 0.202 µM) | 0.25 (≈ 0.202 µM) | 128 | 2 (≈ 1.61 µM) | 1 (≈ 0.807 µM) | 2 (≈ 1.61 µM) | 4 (≈ 3.23 µM) | 0.12 (≈ 0.0969 µM) | 1 (≈ 0.807 µM) | 133 | 512
CC[C@H]1OC(=O)[C@H](C)[C@@H](O[C@H]2C[C@@](C)(OC)[C@@H](OC(=O)NCCCCNC(=O)c3ccc(OC)cc3)[C@H](C)O2)[C@H](C)[C@@H](O[C@@H]2O[C@H](C)C[C@H](N(C)C)[C@H]2O)[C@](C)(O)C[C@@H](C)CN(C)[C@H](C)[C@@H](OC(=O)NCCc2ccc(OC)cc2)[C@]1(C)O | 0.06 (≈ 0.0511 µM) | 0.25 (≈ 0.213 µM) | 64 (≈ 54.5 µM) | 0.5 (≈ 0.426 µM) | 2 (≈ 1.7 µM) | – | 8 (≈ 6.81 µM) | 16 (≈ 13.6 µM) | 8 (≈ 6.81 µM) | 1 (≈ 0.851 µM) | 1 (≈ 0.851 µM) | 4 (≈ 3.41 µM) | – | –
CC[C@H]1OC(=O)[C@H](C)[C@@H](O[C@H]2C[C@@](C)(OC)[C@@H](O)[C@H](C)O2)[C@H](C)[C@@H](O[C@@H]2O[C@H](C)C[C@H](N(C)C)[C@H]2O)[C@](C)(OC)C[C@@H](C)C(=O)[C@H](C)[C@@H](O)[C@]1(C)O [CLARITHROMYCIN] | 0.03 (≈ 0.0401 µM) | 4 (≈ 5.35 µM) | 4 (≈ 5.35 µM) | 0.25 (≈ 0.334 µM) | 64 (≈ 85.6 µM) | – | 128 (≈ 171 µM) | 0.03 (≈ 0.0401 µM) | 0.03 (≈ 0.0401 µM) | 0.12 (≈ 0.16 µM) | 0.12 (≈ 0.16 µM) | 0.5 (≈ 0.668 µM) | – | –
